Assay results as given in paper doi:10.1101/2025.10.24.684335v1 (bioRxiv, 2025).

Key:
Assay type in all cases: cell-based, human
ERK = ERK phosphorylation in hCMEC/D3 monolayers, Western blot; details: normalized to GAPDH
AKT = AKT phosphorylation; details: normalized to GAPDH
RAGE = RAGE expression in hCMEC/D3 membrane fraction, Western blot; details: normalized to calnexin
claudin-5 = assay: Claudin-5 immunocytochemistry in hCMEC/D3 monolayers, confocal microscopy; details: 10 nM butyrate 6 h, 1 μM Aβ42 for the last hour; AF647 immunofluorescence
[1] = 10 nM butyrate 6 h with 50 nM insulin for 5 min, p<0.05

Molecule: insulin: insulin used at 50 nM to stimulate insulin signaling
- ERK phosphorylation, fold increase vs untreated group (ERK; 50 nM insulin 5 min alone, p<0.001): 3 fold
- AKT phosphorylation vs untreated group (AKT; 50 nM insulin 5 min alone): not statistically significant

Molecule: Aβ42: unlabeled amyloid beta 42 peptide supplied by Aapptec [reference compound]
- RAGE expression, fold increase vs control (RAGE; 1 μM Aβ42 for 1 h alone, p<0.05): 2.4 fold

Molecule: CCCC(=O)O [butyrate, sodium butyrate]
- Claudin-5 expression vs Aβ42 alone group (claudin-5): increased
- RAGE expression vs Aβ42 alone (reversal of Aβ42-induced increase) (RAGE; butyrate 5 h then co-incubation with 1 μM Aβ42 for 1 h): not significant
- ERK phosphorylation, fold increase vs insulin alone-treated group (ERK; [1]): ~1.3 fold
- AKT phosphorylation, fold increase vs insulin alone-treated group (AKT; [1]): 3 fold
